From EP0002400A1, “Thiazole derivatives, their preparation, intermediates and their use in therapeutics” (SYNTHELABO, priority 1977, dated 1979)

Each molecule was assayed on pointes ponto-géniculo-occipitales (P.G.O.) (assay: Reserpine-induced ponto-geniculo-occipital (PGO) spikes in the curarized cat). Conditions: Felis catus, iv, 0.5 h; dose reducing number of PGO spikes by 50%; cat given réserpine 0,75 mg/kg i.p.; increasing i.v. doses every 30 min, 4H30 after réserpine; read-out: P G O DE 50.
Type: in vivo, chat
Text: Par ailleurs in a étudié l'action des drogues sur les pointes pontc-géniculo-occipitales lors du syndrome réser- pinique chez le chat curarisé, afin de mettre en évidence les propriétés antidépressives des composés.
Che= le chat, on enregistre une activité spécifique au niveau du pont, du noyau genouillé latéral et du cortex occipital qui fut appelée pointes ponto-géniculo-occipitales (P.G.O.).
Cette activité spontanée, (pointes P.G.O.), apparaissant lors du =ycle veille-sommeil, peut être induite par la réserpiné, agent pharmacologique diminuant le taux des monoamines cérébrales.
Cette activité électroencéphalographique, modulée par des mécanismes neuronaux sous le contrôle de neurotransmetteurs sy=aptiques, constitue donc un test pharmacologique pour l'étude de l'action centrale des drogues.
Toutes les expériences sont réalisées de manière aiguë sur des chats des deux sexes de 2 à 3 kg.
Avant le débtt de la préparation chirurgicale effectuée scis narcose à l'éther, l'animal reçoit une injection in- trapéritonéale de 0,75 mg/kg i.p. de réserpine.
Le chat est intubé pour permettre une ventilation artificielle.
Un anesthésique local (xylocalne à 2%) est injecté au niveau des points de pression et des incisions.
Des canules sont placées au niveau de la veine fémorale, pour l'injection des produits et l'infusion d'un agent curarisant, la gallamine triethiodide (Flaxédil^R), et de l'artère fémorale pour l'enregistrement de la pression artérielle.
Des électrodes monopolaires sont vissées α- niveau cortical et des électrodes bipolaires coaxiales sont placées sté- réotaxiquement au niveau des noyaux genouillés latéraux.
L'animal curarisé et ventilé artificiellement est maintenu à température constante tout au long de l'expérience.
L'électroencéphalogramme, l'électrocardiogramme et la pression artérielle sont enregistrés à l'aide d'un polygraphe : Grass modèle 79 D.
Des doses croissantes (0,1; 0,3; 1; 3; 10 et 30 mg/kg) des produits à étudier sont injectées par voie intraveineuse toutes les 30 minutes, 4H30 après l'administration de la réserpine.
Le nombre des pointes P.G.O. est comptabilisé automatiquement par périodes de 10 minutes et exprimé en pourcentage par périodes de 30 minutes en prenant la valeur obtenue lors des 30 minutes de contrôle comme référence (100%).
La dose efficace réduisant de 50% (DE 50) le nombre des pointes P.G.O. est calculée à l'aide d'une courbe de regression semi-logarithmique.

First: C1=C(CSc2ccccc2)N2CCN=C2S1 [compound 1, Chlorhydratede phénylthiométhyl-3 dihydro-5,6 imidazo [2,1 - b] thiazole]
Second: C1=C(COc2ccccc2)N2CCN=C2S1 [compound 5, Chlorhydrate du phénoxyméthyl-3 dihydro-5,6 imidazo [2,1-b] thiazole]
The ED50 of the first is 3-fold lower: 0.4 mg/kg for the first, 1.2 mg/kg for the second.

`COc1ccccc1OCC1=CSC2=NCCN12` [compound 3] and `CCOc1ccccc1OCC1=CSC2=NCCN12` [compound 24] are within 1.5-fold of each other in ED50: 0.4 mg/kg for the first, 0.5 mg/kg for the second.

`COc1ccc(OCC2=CSC3=NCCN23)cc1` [compound 6] and `Cc1ccc(OCC2=CSC3=NCCN23)cc1` [compound 12] are within 1.5-fold of each other in ED50: 1 mg/kg for the first, 0.8 mg/kg for the second.

First: Clc1cccc(OCC2=CSC3=NCCN23)c1 [compound 9]
Second: Clc1ccccc1OCC1=CSC2=NCCN12 [compound 11]
The ED50 of the first is 4.2-fold higher: 1 mg/kg for the first, 0.24 mg/kg for the second.

Going from `Cc1ccccc1OCC1=CSC2=NCCN12` [compound 10, Chlorhydratede (méthyl-2 phénoxy-méthyl)-3 dihydro-5,6 imidazo-[2,1-b] thiazole] to `Brc1ccccc1OCC1=CSC2=NCCN12` [compound 18], the ED50 falls from 0.3 mg/kg to 0.14 mg/kg (2.1-fold).

`FC(F)(F)c1ccccc1OCC1=CSC2=NCCN12` [compound 21] and `C1=C(COc2ccccc2-c2ccccc2)N2CCN=C2S1` [compound 31] are within 1.5-fold of each other in ED50: 0.2 mg/kg for the first, 0.24 mg/kg for the second.
